Earlier results as cited in patent publication US10232037B2, “Supramolecular hydrogel of fMLF-based molecules and use thereof” (BRANDEIS UNIVERSITY, priority 2014, dated 2019).

Tested on: neutrophils
Settings: aqueous solution, literature

CSCC[C@H](NC=O)C(=O)N[C@@H](CC(C)C)C(=O)N[C@@H](Cc1ccccc1)C(=O)O [fMLF, N-formyl-L-methionyl-L-leucyl-L-phenylalanine]
duration of neutrophil accumulation effect: 2 to 6 h
